# Measured values reported in patent US20250228850A1, “COMBINATION OF A CXCR7 ANTAGONIST WITH AN S1P1 RECEPTOR MODULATOR” (Idorsia Pharmaceuticals Ltd., priority 2019, published 2025).
# “Also recorded” adds a separate entry of the source.
# What was measured:
# [1] = system: CXCL12 in plasma (biomarker of CXCR7 receptor antagonist); experiment: Dose finding of COMPOUND in naive mice, CXCL12 elevation in plasma; type: in vivo, mouse (C57BL/6); settings: COMPOUND 100 mg/kg b.i.d. oral, 3 days, naive C57BL/6 mice, exposure at trough (14 hours after last dosing), only the highest dose tested
# Excerpt: CXCL12 or CXCL11 plasma concentrations may be determined using methods well known in the art, e.g. an Ella® immunoassay (Bio-Techne®), or a commercial quantikine ELISA mouse CXCL12/SDF1α kit from R&D systems.
# [2] = First-in-human single-dose study in healthy male subjects (NCT03869320); type: in vivo; settings: male, human, plasma
# Protocol: (§1) […] […] In the 30 mg dose level group the effect of food is additionally investigated by administering the same treatment to the same subjects after a standardized high-fat breakfast.
# healthy male subjects = experiment: as above; type: in vivo
# Protocol: as §1
# MOG-induced EAE mice [3] = experiment: Monotherapy efficacy experiment in MOG-induced EAE model (preventive setting); type: in vivo, mouse (C57BL/6)
# Protocol: Female C57BL/6 mice are immunized with an emulsion of MOG in complete Freund's adjuvant (CFA) and pertussis toxin (day 0). A total of 150 μg of MOG is injected per mice at two sites subcutaneously in each flank of the abdomen. Mice are injected intraperitoneally with pertussis toxin a second time, 2 days after the first injection (day 2). Within 9 to 14 days, mice develop signs of paralysis which will be graded on a scale from 0 to 5 assessing the tail and limbs defined as: 0=no clinical sign of EAE, 0.5=end tail paralyzed or one limb weakness, 1=tail paralyzed or two limbs weakness, 1.5=tail paralyzed and one hind limb weakness, 2=tail paralyzed and bilateral partial hind limb paralysis, 2.5=tail paralyzed and unilateral complete hind limb paralysis, 2.75=score of 2.5+unilateral partial hind limb paralysis, 3=complete bilateral hind limb paralysis, 3.25=3+unilateral partial forelimb paralysis, 3.5=3+unilateral complete forelimb paralysis, 4=complete paralysis (moribund) and, 5=death or euthanized.
# The disease progression follows a chronic progressive course with no remission.
# It consists of four treatment groups: • 1. Vehicle (water) b.i.d., from day 0 • 2.
# Clinical scores are assessed on a daily basis and disease development is compared between vehicle-treated mice and mice receiving COMPOUND. The cumulative disease score is calculated for each mouse by summing all the daily clinical scores over the 29-days study period. The experiment is terminated at day 29, 1 to 4 hours post dosing. […] CXCL12 plasma concentrations are determined using a commercial quantikine ELISA mouse CXCL12/SDF1c kit from R&D systems, according to manufacturer's instructions.
# Groups of 10 mice are dosed orally starting at the day of disease induction (day 0). It consists of two treatment groups: • 1. Vehicle (0.5% Methylcellulose/0.5% Tween® 80) b.i.d., from day 0 • 2. Fingolimod (0.03 mg/kg) q.d.+Vehicle q.d., from day 0
# Clinical scores are assessed on a daily basis and disease development is compared between vehicle-treated mice and mice receiving fingolimod. The cumulative disease score is calculated for each mouse by summing all the daily clinical scores over the 27-days study period. The experiment is terminated at day 27.
# MOG-induced EAE mice [4] = experiment: Combination efficacy experiment in the MOG-induced EAE model (therapeutic setting); type: in vivo, mouse (C57BL/6)
# Protocol: The combination efficacy experiment is performed in the same mouse EAE model as described for the pilot experiments.
# Groups of 10 mice are dosed orally starting just before the onset of disease (day 7). It consists of four treatment groups: • 1. Vehicle (0.5% Methylcellulose/0.5% Tween® 80) b.i.d., from day 7 • 2. Fingolimod (0.03 mg/kg) q.d.+Vehicle q.d., from day 7 • 3.
# Clinical scores are assessed on a daily basis and disease development is compared between vehicle-treated mice and mice receiving the different treatments. The experiment is terminated at day 16 or day 17. Hematology parameters, including lymphocyte count, are measured at the termination of the experiment. […] CXCL12 plasma concentrations are determined using a commercial quantikine ELISA mouse CXCL12/SDF1c kit from R&D systems, according to manufacturer's instructions.
# [5] = system: cuprizone-induced demyelination mice; experiment: Cuprizone-induced demyelination model with cuprizone withdrawal, Experiment 2; type: in vivo, mouse (C57BL/6); settings: week 5 to week 7; COMPOUND 100 mg/kg b.i.d., fingolimod 0.3 mg/kg q.d.
# Protocol: Male C57BL/6 mice are exposed to a 0.2% cuprizone diet for six weeks and then switched to control food for one more week. Groups of 8-9 mice are dosed orally starting after five weeks of cuprizone exposure. It consists of three treatment groups: • 1. Vehicle (0.5% Methylcellulose/0.5% Tween® 80) b.i.d., from week 5 to week 7 • 2. Fingolimod (0.3 mg/kg) q.d.+Vehicle q.d., from week 5 to week 7 • 3. […] Hematology parameters, including lymphocyte count, are measured at the termination of the experiment, one hour after the last dosing. […] Brain samples are isolated and fixed for histopathological and immunohistochemistry examinations to assess the degree of demyelination (Luxol Fast Blue for myelin staining).
# [6] = system: cuprizone-induced demyelination mice; experiment: Cuprizone-induced demyelination mouse model, Experiment 1; type: in vivo, mouse (C57BL/6); settings: 6 weeks
# Protocol: Male C57BL/6 mice are exposed to cuprizone (CPZ; 150 mg/kg, b.i.d.), a […] chelating agent which leads to the death of mature oligodendrocytes, by oral gavage twice daily for six weeks. […] The experiment is terminated after 6 weeks of cuprizone exposure. […] CXCL12 plasma concentrations are measured as previously described in example A. Brain samples are isolated and fixed for histopathological and immunohistochemistry examinations to assess the degree of demyelination (Luxol Fast Blue for myelin staining) and the loss of mature oligodendrocytes (GSTiT staining).
compound,measurement,setting,value
"O=C(N[C@H]1CCN(CC2CC2)C[C@@H]1C(=O)NC1(c2ncccn2)CC1)c1cc(-c2ccc(F)cc2F)on1 [COMPOUND, (3S,4S)-1-Cyclopropylmethyl-4-{[5-(2,4-difluoro-phenyl)-isoxazole-3-carbonyl]-amino}-piperidine-3-carboxylic acid (1-pyrimidin-2-yl-cyclopropyl)-amide]",plasma CXCL12 increase over 24 h,[1],sustain plasma CXCL12 increase over 24 h; also recorded: sustain CXCL12 plasma levels over 24 hours
same,bioavailability,"[2]; iv, i.v. microtracer, 200 mg dose level group, read-out: absolute bioavailability",~50%
same,Tmax,"[2]; single oral doses >=10 mg, fasted",1.3 to 3 h
same,food effect on the pharmacokinetics,"healthy male subjects; 30 mg, standardized high-fat breakfast vs fasted",no relevant food effect
same,dose dependence of plasma CXCL12 concentrations,healthy male subjects; 1 to 200 mg single oral dose,dose-dependently increase
same,exposure increase across the dose range,healthy male subjects; 1 to 200 mg single oral dose,essentially dose-proportional
same,CXCL11 concentrations,"healthy male subjects; healthy volunteers, single dose",essentially unchanged
same,route of excretion,"healthy male subjects; oral microtracer, 100 mg dose level group",mainly excreted in feces and to a minor extent in urine
same,plasma CXCL12 levels compared to baseline,"healthy male subjects; single oral dose, across tested dose range",approximately 2 fold
same,safety and tolerability,"healthy male subjects; single oral doses from 1 to 200 mg, healthy male subjects",safe and well tolerated
same,overall burden of EAE disease,"MOG-induced EAE mice [3]; COMPOUND 100 mg/kg b.i.d., preventive setting",significantly reduces
same,plasma CXCL12 levels,"MOG-induced EAE mice [3]; COMPOUND 10, 30, 100 mg/kg b.i.d. from day 0, day 29, 1 to 4 hours post dosing",dose-dependent increase
same,"overall extent of EAE disease, mean cumulative disease scores over the 29-days study","MOG-induced EAE mice [3]; COMPOUND 10, 30, 100 mg/kg b.i.d. oral from day 0 (preventive)",dose-dependent efficacy
same,CXCL12 plasma levels,"MOG-induced EAE mice [4]; COMPOUND 100 mg/kg b.i.d. from day 7, at termination",increase
same,efficacy on the clinical scores of the disease,"MOG-induced EAE mice [4]; from day 7 (just before onset), COMPOUND 100 mg/kg b.i.d., fingolimod 0.03 mg/kg q.d., combination effect from day 14 onwards",moderate
same,spontaneous remyelination in the corpus callosum one week after CPZ withdrawal,[5],accelerated significantly
same,mature oligodendrocyte counts in the corpus callosum,[6]; COMPOUND 100 mg/kg b.i.d. preventive from day 0 (prev-CPZ),increased significantly
same,myelin stain (Luxol Fast Blue) in the corpus callosum,"[6]; COMPOUND 100 mg/kg b.i.d. preventive, co-administered with cuprizone from day 0 (prev-CPZ)",increased significantly
same,mature oligodendrocyte counts in the corpus callosum,[6]; COMPOUND 100 mg/kg b.i.d. therapeutic from week 3 (ther-CPZ),increased significantly
same,myelin stain (Luxol Fast Blue) in the corpus callosum,"[6]; COMPOUND 100 mg/kg b.i.d. therapeutic, starting 3 weeks after cuprizone start (ther-CPZ)",increased significantly
